# Reference: patent publication US10947213B1 (Merck Patent GmbH, priority 2015, dated 2021)
# Target: T1, TLR7/NFKb HEK cells (Homo sapiens, UniProt Q9NYK1)
# T1 construct: expressed in transfected cells; host or cells: HEK cells (TLR7/NFKb reporter line)
# T1 sequence (Q9NYK1 27-1049): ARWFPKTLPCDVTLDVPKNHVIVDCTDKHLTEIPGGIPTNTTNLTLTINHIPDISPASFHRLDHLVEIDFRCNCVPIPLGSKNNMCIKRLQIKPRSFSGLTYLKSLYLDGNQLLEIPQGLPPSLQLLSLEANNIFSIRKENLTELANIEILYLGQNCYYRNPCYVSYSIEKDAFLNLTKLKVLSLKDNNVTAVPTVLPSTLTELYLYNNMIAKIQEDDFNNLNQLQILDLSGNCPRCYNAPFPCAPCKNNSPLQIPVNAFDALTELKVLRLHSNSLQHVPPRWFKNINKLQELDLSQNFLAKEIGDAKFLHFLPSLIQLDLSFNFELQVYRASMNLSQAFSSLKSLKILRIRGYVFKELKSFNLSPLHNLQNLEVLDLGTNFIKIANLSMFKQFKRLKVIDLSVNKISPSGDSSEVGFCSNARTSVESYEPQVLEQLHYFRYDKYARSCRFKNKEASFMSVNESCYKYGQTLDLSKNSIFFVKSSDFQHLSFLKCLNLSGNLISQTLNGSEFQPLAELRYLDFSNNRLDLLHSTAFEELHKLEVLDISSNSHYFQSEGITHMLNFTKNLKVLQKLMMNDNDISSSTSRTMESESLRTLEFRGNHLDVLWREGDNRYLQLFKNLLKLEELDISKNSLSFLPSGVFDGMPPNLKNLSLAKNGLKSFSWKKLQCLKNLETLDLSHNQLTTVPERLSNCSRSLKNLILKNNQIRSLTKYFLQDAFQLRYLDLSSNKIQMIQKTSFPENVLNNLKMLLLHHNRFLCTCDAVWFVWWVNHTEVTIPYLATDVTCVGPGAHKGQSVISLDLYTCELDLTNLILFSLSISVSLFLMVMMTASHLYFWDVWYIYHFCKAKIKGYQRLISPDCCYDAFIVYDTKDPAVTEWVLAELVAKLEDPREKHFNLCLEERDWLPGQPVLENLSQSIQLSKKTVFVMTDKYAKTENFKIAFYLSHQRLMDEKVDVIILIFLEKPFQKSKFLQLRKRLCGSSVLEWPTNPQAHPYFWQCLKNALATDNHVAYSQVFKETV
# Test: HEK Cell Assay (TLR7/NFKb reporter, Steady-Glo luciferase readout)
# Type: cell-based
# Settings: 30 min compound preincubation, then R*48 agonist for 5 hours, read-out: Potency
# Procedure, shortened: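 Steady-Glo luminescence after 5 h stimulation with R*48 agonist, following 30 min compound preincubation. Assay run in HEK cells carrying a TLR7/NFKb luciferase reporter, plated at 5000 cells/well and grown 24 h at 37° C (10% CO2) before treatment.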
row,Compound,IC50 [µM]
1,"C[C@H]1C[C@@H](NC(=O)C(N)C2CC2)CN(c2ccc(C(F)(F)F)c3nccnc23)C1 (stereo partly drawn) [Compound 294, 2-amino-2-cyclopropyl-N-[(3R,5S)-5-methyl-1-[8-(trifluoromethyl)quinoxalin-5-yl]piperidin-3-yl]acetamide]",< 1
2,"C[C@H]1C[C@@H](NC(=O)CC2CCN(C)C2)CN(c2ccc(C(F)(F)F)c3nccnc23)C1 (stereo partly drawn) [Compound 295, N-[(3R,5S)-5-methyl-1-[8-(trifluoromethyl)quinoxalin-5-yl]piperidin-3-yl]-2-(1-methylpyrrolidin-3-yl)acetamide]",< 1
3,"C[C@H]1C[C@@H](NC(=O)CN2CC(O)C2)CN(c2ccc(C(F)(F)F)c3nccnc23)C1 [Compound 296, 2-(3-hydroxyazetidin-1-yl)-N-[(3R,5S)-5-methyl-1-[8-(trifluoromethyl)quinoxalin-5-yl]piperidin-3-yl]acetamide]",< 1
4,CC(C(=O)N[C@@H]1C[C@H](C)CN(c2ccc(C(F)(F)F)c3nccnc23)C1)N1CC(O)C1 (stereo partly shown) [Compound 297],< 1
5,"C[C@H]1C[C@@H](NC(=O)CC2CC2(F)F)CN(c2ccc(C(F)(F)F)c3nccnc23)C1 (stereo partly drawn) [Compound 298, 2-(2,2-difluorocyclopropyl)-N-[(3R,5S)-5-methyl-1-[8-(trifluoromethyl)quinoxalin-5-yl]piperidin-3-yl]acetamide]",< 1
6,"CC(C(=O)N[C@@H]1C[C@H](C)CN(c2ccc(C(F)(F)F)c3nccnc23)C1)N1CC(F)(F)C1 (stereo partly drawn) [Compound 299, 2-(3,3-difluoroazetidin-1-yl)-N-[(3R,5S)-5-methyl-1-[8-(trifluoromethyl)quinoxalin-5-yl]piperidin-3-yl]propanamide]",1 to 10
7,"C[C@H]1C[C@@H](NC(=O)CC2CNC2)CN(c2ccc(C(F)(F)F)c3nccnc23)C1 [Compound 300, 2-(azetidin-3-yl)-N-[(3R,5S)-5-methyl-1-[8-(trifluoromethyl)quinoxalin-5-yl]piperidin-3-yl]acetamide]",< 1
8,"C[C@H]1C[C@@H](NC(=O)CC(C)(C)CN)CN(c2ccc(C(F)(F)F)c3nccnc23)C1 [Compound 301, 4-amino-3,3-dimethyl-N-[(3R,5S)-5-methyl-1-[8-(trifluoromethyl)quinoxalin-5-yl]piperidin-3-yl]butanamide]",< 1
9,"CC(O)C(=O)N[C@@H]1C[C@H](C)CN(c2ccc(C(F)F)c3ncccc23)C1 (stereo partly drawn) [Compound 302, N-[(3R,5S)-1-[8-(difluoromethyl)quinolin-5-yl]-5-methylpiperidin-3-yl]-2-hydroxypropanamide]",1 to 10
10,"C[C@H]1C[C@@H](NC(=O)CC2CCCN(C)C2)CN(c2ccc(C(F)F)c3ncccc23)C1 (stereo partly drawn) [Compound 303, N-[(3R,5S)-1-[8-(difluoromethyl)quinolin-5-yl]-5-methylpiperidin-3-yl]-2-(1-methylpiperidin-3-yl)acetamide]",< 1
11,"C[C@H]1C[C@@H](NC(=O)CN2CC(N)C2)CN(c2ccc(C(F)F)c3ncccc23)C1 [Compound 304, 2-(3-aminoazetidin-1-yl)-N-[(3R,5S)-1-[8-(difluoromethyl)quinolin-5-yl]-5-methylpiperidin-3-yl]acetamide]",< 1
12,"CC(C(=O)N[C@@H]1C[C@H](C)CN(c2ccc(C(F)F)c3ncccc23)C1)N1CC(N)C1 (stereo partly drawn) [Compound 305, 2-(3-aminoazetidin-1-yl)-N-[(3R,5S)-1-[8-(difluoromethyl)quinolin-5-yl]-5-methylpiperidin-3-yl]propanamide]",< 1
13,"C[C@H]1C[C@@H](NC(=O)C(N)C2CC2)CN(c2ccc(C(F)F)c3ncccc23)C1 (stereo partly drawn) [Compound 306, 2-amino-2-cyclopropyl-N-[(3R,5S)-1-[8-(difluoromethyl)quinolin-5-yl]-5-methylpiperidin-3-yl]acetamide]",< 1

# Further lines, results first:
row,IC50 [µM],Compound
1,< 1,"C[C@H]1C[C@@H](NC(=O)CC2CCN(C)C2)CN(c2ccc(C(F)F)c3ncccc23)C1 (stereo partly drawn) [Compound 307, N-[(3R,5S)-1-[8-(difluoromethyl)quinolin-5-yl]-5-methylpiperidin-3-yl]-2-(1-methylpyrrolidin-3-yl)acetamide]"
2,1 to 10,"C[C@H]1C[C@@H](NC(=O)CN2CC(O)C2)CN(c2ccc(C(F)F)c3ncccc23)C1 [Compound 308, N-[(3R,5S)-1-[8-(difluoromethyl)quinolin-5-yl]-5-methylpiperidin-3-yl]-2-(3-hydroxyazetidin-1-yl)acetamide]"
3,< 1,"CC(C(=O)N[C@@H]1C[C@H](C)CN(c2ccc(C(F)F)c3ncccc23)C1)N1CC(O)C1 (stereo partly drawn) [Compound 309, N-[(3R,5S)-1-[8-(difluoromethyl)quinolin-5-yl]-5-methylpiperidin-3-yl]-2-(3-hydroxyazetidin-1-yl)propanamide]"
4,< 1,"C[C@H]1C[C@@H](NC(=O)CC2CC2(F)F)CN(c2ccc(C(F)F)c3ncccc23)C1 (stereo partly drawn) [Compound 310, 2-(2,2-difluorocyclopropyl)-N-[(3R,5S)-1-[8-(difluoromethyl)quinolin-5-yl]-5-methylpiperidin-3-yl]acetamide]"
5,1 to 10,"CC(C(=O)N[C@@H]1C[C@H](C)CN(c2ccc(C(F)F)c3ncccc23)C1)N1CC(F)(F)C1 (stereo partly drawn) [Compound 311, 2-(3,3-difluoroazetidin-1-yl)-N-[(3R,5S)-1-[8-(difluoromethyl)quinolin-5-yl]-5-methylpiperidin-3-yl]propanamide]"
6,1 to 10,"C[C@H]1C[C@@H](NC(=O)CC2CNC2)CN(c2ccc(C(F)F)c3ncccc23)C1 [Compound 312, 2-(azetidin-3-yl)-N-[(3R,5S)-1-[8-(difluoromethyl)quinolin-5-yl]-5-methylpiperidin-3-yl]acetamide]"
7,< 1,"CC(C(=O)N[C@@H]1C[C@H](C)CN(c2ccc(C(F)F)c3ncccc23)C1)N1CCC(O)CC1 (stereo partly drawn) [Compound 313, N-[(3R,5S)-1-[8-(difluoromethyl)quinolin-5-yl]-5-methylpiperidin-3-yl]-2-(4-hydroxypiperidin-1-yl)propanamide]"
8,< 1,"C[C@H]1C[C@@H](NC(=O)CN2CCCN(C)CC2)CN(c2ccc(C(F)F)c3ncccc23)C1 [Compound 314, N-[(3R,5S)-1-[8-(difluoromethyl)quinolin-5-yl]-5-methylpiperidin-3-yl]-2-(4-methyl-1,4-diazepan-1-yl)acetamide]"
9,< 1,"C[C@H]1C[C@@H](NC(=O)CC(C)(C)CN)CN(c2ccc(C(F)F)c3ncccc23)C1 [Compound 315, 4-amino-N-[(3R,5S)-1-[8-(difluoromethyl)quinolin-5-yl]-5-methylpiperidin-3-yl]-3,3-dimethylbutanamide]"
10,< 1,"C[C@H]1C[C@@H](NC(=O)CC2CCN(C)CC2)CN(c2ccc(C(F)F)c3ncccc23)C1 [Compound 316, N-[(3R,5S)-1-[8-(difluoromethyl)quinolin-5-yl]-5-methylpiperidin-3-yl]-2-(1-methylpiperidin-4-yl)acetamide]"
11,> 10,"C[C@H]1C[C@@H](NC(=O)C2CC(F)(F)C2)CN(c2ccc(C(F)F)c3ncccc23)C1 [Compound 317, N-[(3R,5S)-1-[8-(difluoromethyl)quinolin-5-yl]-5-methylpiperidin-3-yl]-3,3-difluorocyclobutane-1-carboxamide]"
12,< 1,"C[C@H]1C[C@@H](NC(=O)CC2CCCN(C)C2)CN(c2ccc(C(F)F)c3nccnc23)C1 (stereo partly drawn) [Compound 318, N-[(3R,5S)-1-[8-(difluoromethyl)quinoxalin-5-yl]-5-methylpiperidin-3-yl]-2-(1-methylpiperidin-3-yl)acetamide]"
13,< 1,"C[C@H]1C[C@@H](NC(=O)CC2CCN(C)C2)CN(c2ccc(C(F)F)c3nccnc23)C1 (stereo partly drawn) [Compound 319, N-[(3R,5S)-1-[8-(difluoromethyl)quinoxalin-5-yl]-5-methylpiperidin-3-yl]-2-(1-methylpyrrolidin-3-yl)acetamide]"
14,1 to 10,"C[C@H]1C[C@@H](NC(=O)CN2CC(O)C2)CN(c2ccc(C(F)F)c3nccnc23)C1 [Compound 320, N-[(3R,5S)-1-[8-(difluoromethyl)quinoxalin-5-yl]-5-methylpiperidin-3-yl]-2-(3-hydroxyazetidin-1-yl)acetamide]"
15,1 to 10,"CC(C(=O)N[C@@H]1C[C@H](C)CN(c2ccc(C(F)F)c3nccnc23)C1)N1CC(O)C1 (stereo partly drawn) [Compound 321, N-[(3R,5S)-1-[8-(difluoromethyl)quinoxalin-5-yl]-5-methylpiperidin-3-yl]-2-(3-hydroxyazetidin-1-yl)propanamide]"
